According to the kinase profiling compilation of Christmann-Franck et al. (2016):

Columns and labels:
Assay in all cases: radiometric filter-binding kinase assay, Kinase HotSpot
Settings in all cases: compound 0.5 µM; ATP 10 µM
[1] = target: NEK11 (human) (UniProt Q8NG66)
[2] = target: PRKACG (human) (UniProt P22612)
[3] = target: KDR (human) (UniProt P35968)
[4] = target: RPS6KB1 (human) (UniProt P23443)
[5] = target: CSNK1D (human) (UniProt P48730)
[6] = target: CDK5 CDK5R1 p25 (human) (UniProt Q00535+Q15078)
[7] = target: FES (human) (UniProt P07332)
[8] = target: MAP3K2 (human) (UniProt Q9Y2U5)
[9] = target: ACVR1B (human) (UniProt P36896)
[10] = target: RPS6KA5 KD2 (human) (UniProt O75582)
[11] = target: PBK (human) (UniProt Q96KB5)
[12] = target: DDR2 (human) (UniProt Q16832)
[13] = target: TAOK1 (human) (UniProt Q7L7X3)
[14] = target: MAP3K7 TAB1 (human) (UniProt O43318+Q15750)
[15] = target: DAPK2 (human) (UniProt Q9UIK4)
[16] = target: RAF1 (human) (UniProt P04049)
[17] = target: TSSK1B (human) (UniProt Q9BXA7)
[18] = target: CLK3 (human) (UniProt P49761)
[19] = target: CDK1 CCNA2 (human) (UniProt P06493+P20248)
[20] = target: AKT2 (human) (UniProt P31751)
[21] = target: STK11 (human) (UniProt Q15831)
[22] = target: TNK2 (human) (UniProt Q07912)
[23] = target: MERTK (human) (UniProt Q12866)
[24] = target: TEC (human) (UniProt P42680)
[25] = target: MAPK14 (human) (UniProt Q16539)
[26] = target: CDK6 CCND1 (human) (UniProt Q00534+P24385)
[27] = target: KIT (human) (UniProt P10721)
[28] = target: PDPK1 (human) (UniProt O15530)
[29] = target: RET (human) (UniProt P07949)
[30] = target: PHKG2 (human) (UniProt P15735)
[31] = target: VRK1 (human) (UniProt Q99986)
[32] = target: ERBB4 (human) (UniProt Q15303)
[33] = target: EPHA4 (human) (UniProt P54764)
[34] = target: MAPK1 (human) (UniProt P28482)
[35] = target: PKN2 (human) (UniProt Q16513)
[36] = target: ERBB2 (human) (UniProt P04626)
[37] = target: FGR (human) (UniProt P09769)
[38] = target: AURKC (human) (UniProt Q9UQB9)
[39] = target: PAK3 (human) (UniProt O75914)
[40] = target: WEE1 (human) (UniProt P30291)
[41] = target: TAOK2 (human) (UniProt Q9UL54)
[42] = target: CDK4 CCND3 (human) (UniProt P30281+P11802)

PKN2 (human), sequence (Q16513 whole entry, looked up): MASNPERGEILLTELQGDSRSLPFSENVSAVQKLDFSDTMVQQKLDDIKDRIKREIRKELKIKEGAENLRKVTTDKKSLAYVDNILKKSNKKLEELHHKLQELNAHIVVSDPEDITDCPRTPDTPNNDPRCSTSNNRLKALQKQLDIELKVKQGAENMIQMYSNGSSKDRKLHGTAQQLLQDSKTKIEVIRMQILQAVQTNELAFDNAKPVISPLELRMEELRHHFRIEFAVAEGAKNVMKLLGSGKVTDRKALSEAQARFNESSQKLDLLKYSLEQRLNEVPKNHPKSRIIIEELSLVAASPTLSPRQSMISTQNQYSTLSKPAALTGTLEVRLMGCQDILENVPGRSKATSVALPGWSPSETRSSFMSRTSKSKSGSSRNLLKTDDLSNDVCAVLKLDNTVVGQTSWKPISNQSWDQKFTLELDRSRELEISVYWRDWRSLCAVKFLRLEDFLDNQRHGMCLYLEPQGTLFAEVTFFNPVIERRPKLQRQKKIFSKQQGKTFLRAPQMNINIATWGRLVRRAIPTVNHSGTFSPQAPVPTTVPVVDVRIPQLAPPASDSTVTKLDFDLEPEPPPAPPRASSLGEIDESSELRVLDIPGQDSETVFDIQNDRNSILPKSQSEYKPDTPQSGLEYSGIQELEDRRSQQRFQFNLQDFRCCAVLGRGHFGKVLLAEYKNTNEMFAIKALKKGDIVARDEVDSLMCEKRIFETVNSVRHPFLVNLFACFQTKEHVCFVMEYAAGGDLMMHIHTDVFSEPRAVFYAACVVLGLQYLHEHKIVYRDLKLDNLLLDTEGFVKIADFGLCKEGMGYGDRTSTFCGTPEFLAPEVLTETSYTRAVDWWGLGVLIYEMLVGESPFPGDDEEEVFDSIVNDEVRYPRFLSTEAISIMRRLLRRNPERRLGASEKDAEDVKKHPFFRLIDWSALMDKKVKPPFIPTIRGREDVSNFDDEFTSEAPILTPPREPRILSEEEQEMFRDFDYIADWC
AURKC (human), sequence (Q9UQB9 whole entry, looked up): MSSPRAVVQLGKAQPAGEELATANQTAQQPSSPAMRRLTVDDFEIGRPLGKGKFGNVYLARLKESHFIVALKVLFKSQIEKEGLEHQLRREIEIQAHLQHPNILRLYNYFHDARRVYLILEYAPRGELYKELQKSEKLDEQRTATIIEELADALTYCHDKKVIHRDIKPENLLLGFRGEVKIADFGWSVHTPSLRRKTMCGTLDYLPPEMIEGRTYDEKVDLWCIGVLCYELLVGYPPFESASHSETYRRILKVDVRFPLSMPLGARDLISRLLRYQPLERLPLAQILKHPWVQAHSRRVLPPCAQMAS
CDK6 CCND1 (human), sequence (P24385 whole entry, looked up): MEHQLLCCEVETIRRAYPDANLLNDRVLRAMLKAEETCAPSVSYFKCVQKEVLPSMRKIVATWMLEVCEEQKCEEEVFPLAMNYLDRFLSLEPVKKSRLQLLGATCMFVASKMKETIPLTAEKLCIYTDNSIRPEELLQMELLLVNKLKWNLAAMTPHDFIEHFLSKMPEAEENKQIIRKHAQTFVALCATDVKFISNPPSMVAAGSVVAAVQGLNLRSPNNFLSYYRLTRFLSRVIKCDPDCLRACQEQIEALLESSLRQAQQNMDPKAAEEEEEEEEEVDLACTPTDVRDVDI
CDK6 CCND1 (human), sequence (Q00534 whole entry, looked up): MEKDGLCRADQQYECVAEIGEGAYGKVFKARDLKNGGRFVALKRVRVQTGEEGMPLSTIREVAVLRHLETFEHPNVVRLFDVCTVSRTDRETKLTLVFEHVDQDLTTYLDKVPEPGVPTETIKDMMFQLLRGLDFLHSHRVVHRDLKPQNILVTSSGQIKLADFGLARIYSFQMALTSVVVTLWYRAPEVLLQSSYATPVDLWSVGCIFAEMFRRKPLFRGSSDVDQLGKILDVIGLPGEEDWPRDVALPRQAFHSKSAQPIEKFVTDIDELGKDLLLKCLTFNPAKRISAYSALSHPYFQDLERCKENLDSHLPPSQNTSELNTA
MAP3K2 (human), sequence (Q9Y2U5 whole entry, looked up): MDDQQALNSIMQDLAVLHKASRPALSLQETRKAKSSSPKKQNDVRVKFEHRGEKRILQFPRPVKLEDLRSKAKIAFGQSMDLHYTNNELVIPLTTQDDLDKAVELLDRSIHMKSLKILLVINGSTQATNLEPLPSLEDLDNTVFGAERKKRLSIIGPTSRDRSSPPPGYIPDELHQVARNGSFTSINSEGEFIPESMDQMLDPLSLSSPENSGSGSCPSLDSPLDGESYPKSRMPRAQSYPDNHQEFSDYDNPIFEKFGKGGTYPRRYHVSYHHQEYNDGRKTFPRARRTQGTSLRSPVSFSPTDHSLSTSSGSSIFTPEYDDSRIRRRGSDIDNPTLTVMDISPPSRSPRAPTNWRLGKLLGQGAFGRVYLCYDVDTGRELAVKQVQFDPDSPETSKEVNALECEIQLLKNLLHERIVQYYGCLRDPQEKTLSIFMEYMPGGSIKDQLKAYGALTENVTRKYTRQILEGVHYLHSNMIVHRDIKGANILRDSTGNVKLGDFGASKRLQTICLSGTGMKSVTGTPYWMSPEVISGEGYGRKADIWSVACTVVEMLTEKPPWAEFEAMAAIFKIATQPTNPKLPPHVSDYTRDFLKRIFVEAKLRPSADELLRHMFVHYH
RPS6KA5 KD2 (human), sequence (O75582 whole entry, looked up): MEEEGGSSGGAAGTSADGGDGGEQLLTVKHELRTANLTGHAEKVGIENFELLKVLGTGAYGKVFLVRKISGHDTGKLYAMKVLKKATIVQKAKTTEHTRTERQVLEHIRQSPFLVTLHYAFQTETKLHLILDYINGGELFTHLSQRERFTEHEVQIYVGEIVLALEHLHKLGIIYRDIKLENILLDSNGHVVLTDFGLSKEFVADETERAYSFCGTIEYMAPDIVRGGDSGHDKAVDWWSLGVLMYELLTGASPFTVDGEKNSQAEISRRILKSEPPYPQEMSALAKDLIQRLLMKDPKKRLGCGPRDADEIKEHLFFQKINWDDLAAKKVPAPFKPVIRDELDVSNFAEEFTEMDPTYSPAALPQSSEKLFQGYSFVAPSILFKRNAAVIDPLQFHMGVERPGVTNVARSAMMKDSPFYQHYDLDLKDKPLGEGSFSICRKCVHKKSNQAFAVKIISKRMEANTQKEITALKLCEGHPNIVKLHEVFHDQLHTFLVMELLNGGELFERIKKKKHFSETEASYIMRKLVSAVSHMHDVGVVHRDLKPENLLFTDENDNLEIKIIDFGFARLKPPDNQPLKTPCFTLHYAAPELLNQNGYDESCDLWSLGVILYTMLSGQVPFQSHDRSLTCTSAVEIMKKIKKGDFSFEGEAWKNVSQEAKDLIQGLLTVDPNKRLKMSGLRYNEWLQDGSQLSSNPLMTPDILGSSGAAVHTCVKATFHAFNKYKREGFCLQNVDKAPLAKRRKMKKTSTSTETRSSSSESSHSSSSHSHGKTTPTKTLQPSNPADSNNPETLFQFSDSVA
MAP3K7 TAB1 (human), sequence (O43318 whole entry, looked up): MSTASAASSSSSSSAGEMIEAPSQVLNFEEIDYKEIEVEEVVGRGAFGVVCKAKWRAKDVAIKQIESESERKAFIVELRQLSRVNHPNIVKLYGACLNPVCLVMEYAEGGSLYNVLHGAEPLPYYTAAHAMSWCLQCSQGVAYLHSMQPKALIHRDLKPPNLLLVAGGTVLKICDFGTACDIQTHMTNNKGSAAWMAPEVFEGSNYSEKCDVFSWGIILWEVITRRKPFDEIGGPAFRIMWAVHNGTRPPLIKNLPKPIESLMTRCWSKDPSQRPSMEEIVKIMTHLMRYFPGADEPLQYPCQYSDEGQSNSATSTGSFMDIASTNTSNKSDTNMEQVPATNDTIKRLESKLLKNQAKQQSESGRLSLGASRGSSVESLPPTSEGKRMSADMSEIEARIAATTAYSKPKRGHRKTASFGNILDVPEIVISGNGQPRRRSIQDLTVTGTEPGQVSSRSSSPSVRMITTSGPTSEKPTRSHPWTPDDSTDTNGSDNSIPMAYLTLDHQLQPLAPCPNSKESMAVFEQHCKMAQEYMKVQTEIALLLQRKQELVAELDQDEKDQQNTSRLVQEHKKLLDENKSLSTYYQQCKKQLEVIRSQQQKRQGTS
MAP3K7 TAB1 (human), sequence (Q15750 whole entry, looked up): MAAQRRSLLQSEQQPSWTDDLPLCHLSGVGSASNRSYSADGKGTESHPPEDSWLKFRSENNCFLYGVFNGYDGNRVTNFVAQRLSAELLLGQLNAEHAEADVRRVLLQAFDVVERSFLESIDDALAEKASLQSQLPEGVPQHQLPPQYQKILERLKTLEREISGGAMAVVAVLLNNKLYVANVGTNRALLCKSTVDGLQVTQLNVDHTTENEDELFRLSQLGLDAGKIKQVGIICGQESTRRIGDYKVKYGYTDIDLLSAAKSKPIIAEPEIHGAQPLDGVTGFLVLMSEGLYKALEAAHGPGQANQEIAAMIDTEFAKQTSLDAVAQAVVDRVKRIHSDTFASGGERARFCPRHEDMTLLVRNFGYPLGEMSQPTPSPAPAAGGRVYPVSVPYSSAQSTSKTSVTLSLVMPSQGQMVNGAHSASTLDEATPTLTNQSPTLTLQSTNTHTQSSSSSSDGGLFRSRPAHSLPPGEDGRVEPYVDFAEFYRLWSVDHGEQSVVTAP
AKT2 (human), sequence (P31751 whole entry, looked up): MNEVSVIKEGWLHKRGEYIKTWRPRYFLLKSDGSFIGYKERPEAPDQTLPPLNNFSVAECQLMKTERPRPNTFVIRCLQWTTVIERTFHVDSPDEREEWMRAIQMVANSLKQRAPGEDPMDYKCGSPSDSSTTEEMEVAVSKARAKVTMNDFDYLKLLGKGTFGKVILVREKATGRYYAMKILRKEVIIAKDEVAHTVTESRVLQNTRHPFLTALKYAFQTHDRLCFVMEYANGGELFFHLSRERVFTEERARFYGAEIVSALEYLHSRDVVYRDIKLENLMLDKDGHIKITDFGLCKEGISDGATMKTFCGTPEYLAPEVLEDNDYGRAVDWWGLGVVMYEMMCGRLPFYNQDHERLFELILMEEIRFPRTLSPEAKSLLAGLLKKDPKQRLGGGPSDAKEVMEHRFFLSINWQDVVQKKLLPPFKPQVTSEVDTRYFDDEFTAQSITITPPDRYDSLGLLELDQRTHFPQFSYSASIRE

For CNc1cc2c(Nc3cccc(Br)c3)ncnc2cn1, the residual activity [1] was 106%, the residual activity [2] was 115% and the residual activity [3] was 77.6%. It also gave a residual activity [4] of 97.4%, a residual activity [5] of 98.7% and a residual activity [6] of 82.9%. It also gave a residual activity [7] of 96.9%, a residual activity [8] of 74.9% and a residual activity [9] of 97.7%. It also gave a residual activity [10] of 92.3%, a residual activity [11] of 102% and a residual activity [12] of 100%. It also gave a residual activity [13] of 92.4%, a residual activity [14] of 94.9% and a residual activity [15] of 136%. The residual activity [16] was 87.8%, the residual activity [17] was 60.2% and the residual activity [18] was 87.6%. The residual activity [19] was 86.5%, the residual activity [20] was 99.6% and the residual activity [21] was 98.3%. For the same compound, the residual activity [22] was 30.3%, the residual activity [23] was 87.5% and the residual activity [24] was 109%. For the same compound, the residual activity [25] was 90%, the residual activity [26] was 82.2% and the residual activity [27] was 86.4%. It also gave a residual activity [28] of 97.7%, a residual activity [29] of 78.5% and a residual activity [30] of 113%. The residual activity [31] was 90.2%, the residual activity [32] was 58.6% and the residual activity [33] was 94.2%. The residual activity [34] was 88.6%, the residual activity [35] was 102% and the residual activity [36] was 28.9%. The residual activity [37] was 88.3%, the residual activity [38] was 85.9% and the residual activity [39] was 98.8%. The residual activity [40] was 75.9%, the residual activity [41] was 95.3% and the residual activity [42] was 120%.

O=C1NC(=O)C(c2cn(CCCn3ccnc3)c3ccccc23)=C1Nc1ccccc1 showed a residual activity [1] of 75.6%, a residual activity [2] of 117% and a residual activity [3] of 90.2%. The residual activity [4] was 42.7%, the residual activity [5] was 102% and the residual activity [6] was 86%. It also gave a residual activity [7] of 103%, a residual activity [8] of 83.3% and a residual activity [9] of 96.2%. The residual activity [10] was 36.9%, the residual activity [11] was 104% and the residual activity [12] was 95.6%. The residual activity [13] was 101%, the residual activity [14] was 93.8% and the residual activity [15] was 104%. It also gave a residual activity [16] of 105%, a residual activity [17] of 102% and a residual activity [18] of 93.9%. It also gave a residual activity [19] of 88.9%, a residual activity [20] of 92.3% and a residual activity [21] of 89.9%. It also gave a residual activity [22] of 65.9%, a residual activity [23] of 86.1% and a residual activity [24] of 162%. It also gave a residual activity [25] of 88.3%, a residual activity [26] of 83.1% and a residual activity [27] of 90.2%. For the same compound, the residual activity [28] was 80.3%, the residual activity [29] was 95.6% and the residual activity [30] was 107%. For the same compound, the residual activity [31] was 98.7%, the residual activity [32] was 59.6% and the residual activity [33] was 111%. It also gave a residual activity [34] of 94.8%, a residual activity [35] of 76.9% and a residual activity [36] of 93.6%. The residual activity [37] was 86.3%, the residual activity [38] was 89.8% and the residual activity [39] was 100%. For the same compound, the residual activity [40] was 95.8%, the residual activity [41] was 92.3% and the residual activity [42] was 91%.

For Oc1cccc(-c2nc(N3CCOCC3)c3oc4ncccc4c3n2)c1, the residual activity [1] was 109%, the residual activity [2] was 101% and the residual activity [3] was 85.9%. The residual activity [4] was 106%, the residual activity [5] was 91.3% and the residual activity [6] was 77.9%. For the same compound, the residual activity [7] was 98.8%, the residual activity [8] was 103% and the residual activity [10] was 86.5%. The residual activity [11] was 88.7%, the residual activity [12] was 94.6% and the residual activity [13] was 91.6%. The residual activity [14] was 97.4%, the residual activity [15] was 117% and the residual activity [16] was 79.1%. The residual activity [17] was 93.4%, the residual activity [18] was 93.1% and the residual activity [19] was 84.4%. The residual activity [20] was 99.1%, the residual activity [21] was 86.4% and the residual activity [22] was 89.6%. The residual activity [23] was 87.8%, the residual activity [24] was 113% and the residual activity [26] was 95.6%. It also gave a residual activity [27] of 88.9%, a residual activity [28] of 103% and a residual activity [29] of 99.8%. For the same compound, the residual activity [30] was 99.1%, the residual activity [31] was 98.4% and the residual activity [32] was 97.6%. The residual activity [33] was 96.4%, the residual activity [34] was 89% and the residual activity [35] was 87.6%. For the same compound, the residual activity [36] was 105%, the residual activity [37] was 94.8% and the residual activity [38] was 98.1%. The residual activity [39] was 97.5%, the residual activity [40] was 81.6% and the residual activity [41] was 92.2%. It also gave a residual activity [42] of 92.5%.
